{"source": "ChEMBL document CHEMBL4834455", "about": "“Sesquiterpenes and Steroids from an Endophytic Eutypella scoparia” (J Nat Prod, 2021)", "key": {"Staphylococcus aureus [1]": {"tested_on": "Staphylococcus aureus", "test": "Antibacterial activity against Staphylococcus aureus CMCC26003 assessed as bacterial growth inhibition by microbroth dilution method", "format": "functional"}, "MCF7": {"tested_on": "MCF7", "test": "Antiproliferative activity against human MCF7 cells assessed as cell growth inhibition measured after 48 hrs by MTT assay", "format": "functional, cell-based"}, "Staphylococcus aureus [2]": {"tested_on": "Staphylococcus aureus", "test": "Antibacterial activity against methicillin-resistant Staphylococcus aureus JCSC3063 assessed as bacterial growth inhibition by microbroth dilution method", "format": "functional"}, "HeLa": {"tested_on": "HeLa", "test": "Antiproliferative activity against human HeLa cells assessed as cell growth inhibition measured after 48 hrs by MTT assay", "format": "functional, cell-based"}, "MDA-MB-231": {"tested_on": "MDA-MB-231", "test": "Antiproliferative activity against human MDA-MB-231 cells assessed as cell growth inhibition measured after 48 hrs by MTT assay", "format": "functional, cell-based"}, "[3]": {"test": "Cytotoxicity against African green monkey MARC145 cells assessed as cell growth inhibition measured after 48 hrs by MTT assay", "format": "cell-based", "conditions": "chlorocebus aethiops, marc145, 48 h"}}, "note": "Active and inactive are the calls of the source. The rule behind the calls is not given here.", "data": [{"smiles": "CC1=C2C[C@@H](C(C)(C)O)CC[C@]2(C)CCC1=O", "values": [{"measurement": "Activity", "setting": "Staphylococcus aureus [1]", "result": "inactive"}, {"measurement": "Activity", "setting": "MCF7", "result": "inactive"}, {"measurement": "Activity", "setting": "Staphylococcus aureus [2]", "result": "inactive"}, {"measurement": "Activity", "setting": "HeLa", "result": "inactive"}, {"measurement": "Activity", "setting": "MDA-MB-231", "result": "inactive"}, {"measurement": "Activity", "setting": "[3]", "result": "Non-Toxic"}]}, {"smiles": "CC1=CC(=O)C[C@@]2(C)CC[C@H](C(C)CO)C[C@H]12", "note": "(some centres not stated)", "values": [{"measurement": "Activity", "setting": "Staphylococcus aureus [1]", "result": "inactive"}, {"measurement": "Activity", "setting": "MCF7", "result": "inactive"}, {"measurement": "Activity", "setting": "Staphylococcus aureus [2]", "result": "inactive"}, {"measurement": "Activity", "setting": "HeLa", "result": "inactive"}, {"measurement": "Activity", "setting": "MDA-MB-231", "result": "inactive"}, {"measurement": "Activity", "setting": "[3]", "result": "Non-Toxic"}]}, {"smiles": "CC(C)[C@H](C)/C=C/[C@@H](C(=O)O)[C@H]1CCC2=C3C=C[C@H]4CC(=O)CC[C@]4(C)[C@H]3CC[C@@]21C", "values": [{"measurement": "Activity", "setting": "Staphylococcus aureus [1]", "result": "inactive"}, {"measurement": "Activity", "setting": "MCF7", "result": "inactive"}, {"measurement": "Activity", "setting": "Staphylococcus aureus [2]", "result": "inactive"}, {"measurement": "Activity", "setting": "HeLa", "result": "inactive"}, {"measurement": "Activity", "setting": "MDA-MB-231", "result": "inactive"}, {"measurement": "Activity", "setting": "[3]", "result": "Non-Toxic"}]}, {"smiles": "CC(C)[C@@H](C)/C=C/[C@@H](C)[C@H]1CCC2=C3C=CC4=CC(=O)CC[C@]4(C)[C@H]3CC[C@@]21C", "values": [{"measurement": "Activity", "setting": "Staphylococcus aureus [1]", "result": "inactive"}, {"measurement": "Activity", "setting": "MCF7", "result": "inactive"}, {"measurement": "Activity", "setting": "Staphylococcus aureus [2]", "result": "inactive"}, {"measurement": "Activity", "setting": "HeLa", "result": "inactive"}, {"measurement": "Activity", "setting": "MDA-MB-231", "result": "inactive"}, {"measurement": "Activity", "setting": "[3]", "result": "Non-Toxic"}]}, {"smiles": "C[C@H]1CCC(=O)[C@@]2(C)CC[C@H](C(C)(C)O)[C@H](O)[C@H]12", "values": [{"measurement": "Activity", "setting": "Staphylococcus aureus [1]", "result": "inactive"}, {"measurement": "Activity", "setting": "MCF7", "result": "inactive"}, {"measurement": "Activity", "setting": "Staphylococcus aureus [2]", "result": "inactive"}, {"measurement": "Activity", "setting": "HeLa", "result": "inactive"}, {"measurement": "Activity", "setting": "MDA-MB-231", "result": "inactive"}, {"measurement": "Activity", "setting": "[3]", "result": "Non-Toxic"}]}, {"smiles": "CC1=CCC[C@H]2CC3=C(CO)C(=O)OC3=C[C@]12C", "values": [{"measurement": "Activity", "setting": "Staphylococcus aureus [1]", "result": "inactive"}, {"measurement": "Activity", "setting": "MCF7", "result": "inactive"}, {"measurement": "Activity", "setting": "Staphylococcus aureus [2]", "result": "inactive"}, {"measurement": "Activity", "setting": "HeLa", "result": "inactive"}, {"measurement": "Activity", "setting": "MDA-MB-231", "result": "inactive"}, {"measurement": "Activity", "setting": "[3]", "result": "Non-Toxic"}]}, {"smiles": "C[C@H]1CCC(=O)[C@@]2(C)CCC(C(C)(C)O)=C[C@H]12", "values": [{"measurement": "Activity", "setting": "Staphylococcus aureus [1]", "result": "inactive"}, {"measurement": "Activity", "setting": "MCF7", "result": "inactive"}, {"measurement": "Activity", "setting": "Staphylococcus aureus [2]", "result": "inactive"}, {"measurement": "Activity", "setting": "HeLa", "result": "inactive"}, {"measurement": "Activity", "setting": "MDA-MB-231", "result": "inactive"}, {"measurement": "Activity", "setting": "[3]", "result": "Non-Toxic"}]}, {"smiles": "C=C1CCC[C@@]2(C)CC[C@H](C(C)(C)O)C[C@H]12", "values": [{"measurement": "Activity", "setting": "Staphylococcus aureus [1]", "result": "inactive"}, {"measurement": "Activity", "setting": "MCF7", "result": "inactive"}, {"measurement": "Activity", "setting": "Staphylococcus aureus [2]", "result": "inactive"}, {"measurement": "Activity", "setting": "HeLa", "result": "inactive"}, {"measurement": "Activity", "setting": "MDA-MB-231", "result": "inactive"}, {"measurement": "Activity", "setting": "[3]", "result": "Non-Toxic"}]}, {"smiles": "CC(=O)OCC(=O)[C@H]1CC[C@]2(C)CCC=C(C)[C@H]2C1", "values": [{"measurement": "Activity", "setting": "Staphylococcus aureus [1]", "result": "inactive"}, {"measurement": "Activity", "setting": "MCF7", "result": "inactive"}, {"measurement": "Activity", "setting": "Staphylococcus aureus [2]", "result": "inactive"}, {"measurement": "Activity", "setting": "HeLa", "result": "inactive"}, {"measurement": "Activity", "setting": "MDA-MB-231", "result": "inactive"}, {"measurement": "Activity", "setting": "[3]", "result": "Non-Toxic"}]}, {"smiles": "C[C@H]1CCC(=O)[C@@]2(C)CC=C(C(C)(C)O)C[C@H]12", "values": [{"measurement": "Activity", "setting": "Staphylococcus aureus [1]", "result": "inactive"}, {"measurement": "Activity", "setting": "MCF7", "result": "inactive"}, {"measurement": "Activity", "setting": "Staphylococcus aureus [2]", "result": "inactive"}, {"measurement": "Activity", "setting": "HeLa", "result": "inactive"}, {"measurement": "Activity", "setting": "MDA-MB-231", "result": "inactive"}, {"measurement": "Activity", "setting": "[3]", "result": "Non-Toxic"}]}, {"smiles": "CC(C)=CCC/C(C)=C/CC/C(C)=C/CC/C=C(\\C)CC/C=C(\\C)CCC=C(C)C", "note": "[SQUALENE]", "values": [{"measurement": "Activity", "setting": "Staphylococcus aureus [1]", "result": "inactive"}, {"measurement": "Activity", "setting": "MCF7", "result": "inactive"}, {"measurement": "Activity", "setting": "Staphylococcus aureus [2]", "result": "inactive"}, {"measurement": "Activity", "setting": "HeLa", "result": "inactive"}, {"measurement": "Activity", "setting": "MDA-MB-231", "result": "inactive"}, {"measurement": "Activity", "setting": "[3]", "result": "Non-Toxic"}]}, {"smiles": "CC1=CC(=O)C[C@@]2(C)CC[C@H](C(C)(C)O)C[C@H]12", "values": [{"measurement": "Activity", "setting": "Staphylococcus aureus [1]", "result": "inactive"}, {"measurement": "Activity", "setting": "MCF7", "result": "inactive"}, {"measurement": "Activity", "setting": "Staphylococcus aureus [2]", "result": "inactive"}, {"measurement": "Activity", "setting": "HeLa", "result": "inactive"}, {"measurement": "Activity", "setting": "MDA-MB-231", "result": "inactive"}, {"measurement": "Activity", "setting": "[3]", "result": "Non-Toxic"}]}, {"smiles": "CC[C@H](CC[C@@H](C)[C@H]1CC[C@H]2[C@@H]3CC=C4C[C@@H](O)CC[C@]4(C)[C@H]3CC[C@]12C)C(C)C", "note": "[BETA-SITOSTEROL]", "values": [{"measurement": "Activity", "setting": "Staphylococcus aureus [1]", "result": "inactive"}, {"measurement": "Activity", "setting": "MCF7", "result": "inactive"}, {"measurement": "Activity", "setting": "Staphylococcus aureus [2]", "result": "inactive"}, {"measurement": "Activity", "setting": "HeLa", "result": "inactive"}, {"measurement": "Activity", "setting": "MDA-MB-231", "result": "inactive"}, {"measurement": "Activity", "setting": "[3]", "result": "Non-Toxic"}]}, {"smiles": "C=C1CCC(=O)[C@@]2(C)CC[C@H](C(C)(C)O)C[C@H]12", "values": [{"measurement": "Activity", "setting": "Staphylococcus aureus [1]", "result": "inactive"}, {"measurement": "Activity", "setting": "MCF7", "result": "inactive"}, {"measurement": "Activity", "setting": "Staphylococcus aureus [2]", "result": "inactive"}, {"measurement": "Activity", "setting": "HeLa", "result": "inactive"}, {"measurement": "Activity", "setting": "MDA-MB-231", "result": "inactive"}, {"measurement": "Activity", "setting": "[3]", "result": "Non-Toxic"}]}, {"smiles": "C=C1C[C@@H](O)C[C@@]2(C)CC[C@H](C(C)(C)O)C[C@H]12", "values": [{"measurement": "Activity", "setting": "Staphylococcus aureus [1]", "result": "inactive"}, {"measurement": "Activity", "setting": "MCF7", "result": "inactive"}, {"measurement": "Activity", "setting": "Staphylococcus aureus [2]", "result": "inactive"}, {"measurement": "Activity", "setting": "HeLa", "result": "inactive"}, {"measurement": "Activity", "setting": "MDA-MB-231", "result": "inactive"}, {"measurement": "Activity", "setting": "[3]", "result": "Non-Toxic"}]}, {"smiles": "CC1=CCC[C@@]2(C)C[C@H]3OC(=O)[C@@H](C)[C@@H]3C[C@H]12", "values": [{"measurement": "Activity", "setting": "Staphylococcus aureus [1]", "result": "inactive"}, {"measurement": "Activity", "setting": "MCF7", "result": "inactive"}, {"measurement": "Activity", "setting": "Staphylococcus aureus [2]", "result": "inactive"}, {"measurement": "Activity", "setting": "HeLa", "result": "inactive"}, {"measurement": "Activity", "setting": "MDA-MB-231", "result": "inactive"}, {"measurement": "Activity", "setting": "[3]", "result": "Non-Toxic"}]}, {"smiles": "CC1=CCCC2(C)CC[C@H](C(C)CO)C[C@H]12", "note": "(single isomer, unassigned)", "values": [{"measurement": "Activity", "setting": "Staphylococcus aureus [1]", "result": 6.3, "unit": "µg/mL"}, {"measurement": "Activity", "setting": "MCF7", "result": "inactive"}, {"measurement": "Activity", "setting": "HeLa", "result": "inactive"}, {"measurement": "Activity", "setting": "MDA-MB-231", "result": "inactive"}, {"measurement": "Activity", "setting": "[3]", "result": "Non-Toxic"}]}, {"smiles": "C=C(C(C)C)[C@H](O)C[C@@H](C)[C@H]1CC[C@@]2(C)C3=C(CC[C@]12C)[C@@]1(C)CCC(=O)C(C)(C)[C@@H]1CC3", "values": [{"measurement": "Activity", "setting": "Staphylococcus aureus [1]", "result": "inactive"}, {"measurement": "Activity", "setting": "MCF7", "result": "inactive"}, {"measurement": "Activity", "setting": "Staphylococcus aureus [2]", "result": "inactive"}, {"measurement": "Activity", "setting": "HeLa", "result": "inactive"}, {"measurement": "Activity", "setting": "MDA-MB-231", "result": "inactive"}, {"measurement": "Activity", "setting": "[3]", "result": "Non-Toxic"}]}]}
